# Results as given in ChEMBL document CHEMBL2163249, “Exploration of natural compounds as sources of new bifunctional scaffolds targeting cholinesterases and beta amyloid aggregation: the case of chelerythrine” (Bioorg Med Chem, 2012).
# Experiments:
# [1] = Inhibition of amyloid beta (1 to 40) aggregation assessed as induction of disaggregation at 100 uM treated 4 days after formation of aggregates by thioflavin T fluorescence method
# Cholinesterase [2] = target: Cholinesterase (Equus caballus, UniProt P81908); experiment: Inhibition of horse BChE by Ellman's method
# Cholinesterase (Equus caballus, UniProt P81908), sequence (P81908 whole entry): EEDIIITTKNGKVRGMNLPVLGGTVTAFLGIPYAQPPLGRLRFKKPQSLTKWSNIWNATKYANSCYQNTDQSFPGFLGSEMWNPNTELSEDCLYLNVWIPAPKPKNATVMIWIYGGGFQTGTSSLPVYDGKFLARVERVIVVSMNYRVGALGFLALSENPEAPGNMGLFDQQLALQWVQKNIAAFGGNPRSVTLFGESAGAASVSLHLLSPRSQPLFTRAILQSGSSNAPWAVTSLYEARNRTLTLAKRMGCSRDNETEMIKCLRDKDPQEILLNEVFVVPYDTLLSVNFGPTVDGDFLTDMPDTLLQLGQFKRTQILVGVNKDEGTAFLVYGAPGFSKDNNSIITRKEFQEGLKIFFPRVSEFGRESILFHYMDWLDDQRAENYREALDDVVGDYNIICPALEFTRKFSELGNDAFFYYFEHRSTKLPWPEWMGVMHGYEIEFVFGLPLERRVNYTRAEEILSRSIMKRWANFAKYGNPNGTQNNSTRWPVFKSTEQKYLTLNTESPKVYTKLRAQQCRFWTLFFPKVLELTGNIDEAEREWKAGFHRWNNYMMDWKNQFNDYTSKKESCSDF
# Cholinesterase [3] = target: Cholinesterase (Homo sapiens, UniProt P06276); experiment: Inhibition of human BChE by Ellman's method
# Cholinesterase (Homo sapiens, UniProt P06276), sequence (P06276 whole entry): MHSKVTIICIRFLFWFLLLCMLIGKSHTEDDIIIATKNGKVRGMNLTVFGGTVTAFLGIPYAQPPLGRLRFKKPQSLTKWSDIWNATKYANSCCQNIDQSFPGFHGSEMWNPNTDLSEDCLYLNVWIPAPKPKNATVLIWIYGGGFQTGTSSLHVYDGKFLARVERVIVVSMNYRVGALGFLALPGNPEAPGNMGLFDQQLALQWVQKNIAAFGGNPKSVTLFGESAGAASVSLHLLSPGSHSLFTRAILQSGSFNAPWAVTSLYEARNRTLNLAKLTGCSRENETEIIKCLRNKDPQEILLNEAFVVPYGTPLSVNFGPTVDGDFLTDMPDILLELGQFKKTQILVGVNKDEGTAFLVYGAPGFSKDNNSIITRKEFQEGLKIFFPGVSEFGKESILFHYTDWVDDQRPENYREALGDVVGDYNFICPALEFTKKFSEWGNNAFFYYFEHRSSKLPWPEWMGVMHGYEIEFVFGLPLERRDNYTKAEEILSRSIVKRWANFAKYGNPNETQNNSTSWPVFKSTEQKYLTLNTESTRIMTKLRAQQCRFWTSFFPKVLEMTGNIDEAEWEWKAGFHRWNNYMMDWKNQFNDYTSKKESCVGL
# Acetylcholinesterase [4] = target: T1, Acetylcholinesterase (Electrophorus electricus, UniProt O42275); experiment: Inhibition of electric eel AChE by Ellman's method
# T1 sequence (O42275 whole entry): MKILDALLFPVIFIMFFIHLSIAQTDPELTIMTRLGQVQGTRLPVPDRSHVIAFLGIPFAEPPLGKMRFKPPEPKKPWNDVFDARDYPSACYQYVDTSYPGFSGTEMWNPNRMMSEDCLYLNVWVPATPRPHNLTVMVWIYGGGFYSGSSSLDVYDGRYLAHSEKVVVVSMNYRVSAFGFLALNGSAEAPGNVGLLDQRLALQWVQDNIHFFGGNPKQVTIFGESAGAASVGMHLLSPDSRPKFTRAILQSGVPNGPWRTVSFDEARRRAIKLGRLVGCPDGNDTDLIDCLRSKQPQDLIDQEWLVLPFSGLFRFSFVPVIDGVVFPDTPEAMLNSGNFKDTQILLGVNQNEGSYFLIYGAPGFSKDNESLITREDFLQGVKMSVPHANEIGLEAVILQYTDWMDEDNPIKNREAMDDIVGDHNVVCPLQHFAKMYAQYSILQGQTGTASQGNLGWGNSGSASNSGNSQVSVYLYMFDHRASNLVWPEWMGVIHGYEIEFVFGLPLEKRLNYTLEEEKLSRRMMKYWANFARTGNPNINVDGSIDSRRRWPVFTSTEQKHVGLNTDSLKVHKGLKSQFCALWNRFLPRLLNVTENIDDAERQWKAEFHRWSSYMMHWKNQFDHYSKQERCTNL
# [5] = target: Acetylcholinesterase (Electrophorus electricus) (UniProt O42275); conditions: at 2 mg/mL
# Acetylcholinesterase (Electrophorus electricus), sequence (O42275 24-633 limits assumed): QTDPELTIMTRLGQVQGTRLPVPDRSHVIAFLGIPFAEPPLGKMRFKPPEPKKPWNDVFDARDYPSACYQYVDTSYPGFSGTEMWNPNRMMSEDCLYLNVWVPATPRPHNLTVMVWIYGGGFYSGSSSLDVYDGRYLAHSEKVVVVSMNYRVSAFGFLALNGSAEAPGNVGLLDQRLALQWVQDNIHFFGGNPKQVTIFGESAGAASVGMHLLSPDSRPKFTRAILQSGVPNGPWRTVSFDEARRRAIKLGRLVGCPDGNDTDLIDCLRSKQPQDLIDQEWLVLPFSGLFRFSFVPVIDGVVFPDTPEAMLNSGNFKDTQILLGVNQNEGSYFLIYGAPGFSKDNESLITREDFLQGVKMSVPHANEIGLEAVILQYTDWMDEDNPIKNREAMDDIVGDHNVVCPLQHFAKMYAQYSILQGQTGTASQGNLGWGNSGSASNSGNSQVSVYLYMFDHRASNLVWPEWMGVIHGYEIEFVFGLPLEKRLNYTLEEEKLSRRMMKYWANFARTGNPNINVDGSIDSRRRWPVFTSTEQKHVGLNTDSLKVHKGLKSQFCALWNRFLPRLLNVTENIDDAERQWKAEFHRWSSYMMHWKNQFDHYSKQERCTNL
# Description: Inhibition of electric eel AChE at 2 mg/ml by Ellman's method
# [6] = target: Cholinesterase (Equus caballus) (UniProt P81908); conditions: at 2 mg/mL
# Cholinesterase (Equus caballus), sequence (P81908 whole entry): as the sequence (P81908 whole entry) above
# Description: Inhibition of horse BChE at 2 mg/ml by Ellman's method
# [7] = Inhibition of HFIP-induced amyloid beta (1 to 40) aggregation at 250 uM after 45 mins by thioflavin T fluorescence method
# [8] = Inhibition of HFIP-induced amyloid beta (1 to 40) aggregation after 45 mins by thioflavin T fluorescence method
# [9] = Inhibition of HFIP-induced amyloid beta (1 to 40) aggregation at 20 uM after 45 mins by thioflavin T fluorescence method
# [10] = Inhibition of amyloid beta (1 to 40) aggregation assessed as induction of disaggregation treated 45 mins after formation of aggregates by thioflavin T fluorescence method
# [11] = Inhibition of amyloid beta (1 to 40) aggregation assessed as induction of disaggregation at 10 uM treated 24 hrs after formation of aggregates by thioflavin T fluorescence method
# [12] = Inhibition of amyloid beta (1 to 40) aggregation assessed as induction of disaggregation at 100 uM treated 24 hrs after formation of aggregates by thioflavin T fluorescence method
# Acetylcholinesterase [13] = target: T1, Acetylcholinesterase; experiment: Competitive inhibition of electric eel AChE using acetyl thiocholine iodide as substrate by Lineweaver-Burk double-reciprocal analysis
# Acetylcholinesterase [14] = target: T1, Acetylcholinesterase; experiment: Uncompetitive inhibition of electric eel AChE using acetyl thiocholine iodide as substrate by Lineweaver-Burk double-reciprocal analysis
# Acetylcholinesterase [15] = target: T2, Acetylcholinesterase (Homo sapiens, UniProt P22303); experiment: Competitive inhibition of human AChE using acetyl thiocholine iodide as substrate by Lineweaver-Burk double-reciprocal analysis
# T2 sequence (P22303 whole entry): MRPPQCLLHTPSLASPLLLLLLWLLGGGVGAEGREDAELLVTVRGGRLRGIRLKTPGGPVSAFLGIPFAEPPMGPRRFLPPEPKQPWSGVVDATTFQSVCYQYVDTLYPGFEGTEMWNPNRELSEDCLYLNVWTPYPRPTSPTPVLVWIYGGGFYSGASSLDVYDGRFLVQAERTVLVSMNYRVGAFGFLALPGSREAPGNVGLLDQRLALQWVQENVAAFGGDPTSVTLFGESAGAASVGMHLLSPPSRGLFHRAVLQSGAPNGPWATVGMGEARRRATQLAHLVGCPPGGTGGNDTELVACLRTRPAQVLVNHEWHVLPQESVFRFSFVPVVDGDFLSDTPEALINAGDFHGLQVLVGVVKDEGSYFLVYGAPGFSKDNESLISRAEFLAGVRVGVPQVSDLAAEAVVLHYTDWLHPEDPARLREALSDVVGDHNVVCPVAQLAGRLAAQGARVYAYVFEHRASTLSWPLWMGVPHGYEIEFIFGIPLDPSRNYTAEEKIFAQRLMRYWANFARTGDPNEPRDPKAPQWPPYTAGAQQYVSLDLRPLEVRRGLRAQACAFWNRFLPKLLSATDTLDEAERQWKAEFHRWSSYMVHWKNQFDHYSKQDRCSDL
# Acetylcholinesterase [16] = target: T2, Acetylcholinesterase; experiment: Uncompetitive inhibition of human AChE using acetyl thiocholine iodide as substrate by Lineweaver-Burk double-reciprocal analysis
# [17] = Inhibition of HFIP-induced amyloid beta (1 to 40) aggregation at 10 uM after 45 mins by thioflavin T fluorescence method
# Acetylcholinesterase [18] = target: T2, Acetylcholinesterase
# Description: Inhibition of human AChE by Ellman's method
# [19] = Inhibition of amyloid beta (1 to 42) aggregation
Structure (SMILES),IC50 (Cholinesterase [2]; read-out: IC50) [µM],IC50 (Cholinesterase [3]; read-out: IC50) [µM],IC50 (Acetylcholinesterase [4]),inhibition [5] [%],inhibition [6] [%],also measured
CC(C)=CCC[C@]1(C)[C@@H](CC=C(C)C)C[C@]2(CC=C(C)C)C(=O)C(CC=C(C)C)=C(O)[C@@]1(C(=O)C(C)C)C2=O,,,,,,inhibition [1]: 20%
Cc1c([C@H](C)[C@@H]2NC[C@@H](C)C[C@H]2O)ccc2c1C[C@H]1[C@H]2CC=C2C[C@@H](O)CC[C@@]21C [VERATRAMINE],10.8,19.5,Not Active,24.5,66.2,
CCC1=C[C@@H]2CN3CCc4c([nH]c5ccccc45)[C@@](C(=O)OC)(C2)[C@@H]13 [CATHARANTHINE BASE],5.17,3.17,Not Active,5.28,75.2,
CC[C@H]1CN2CCc3c([nH]c4ccccc34)[C@H]2C[C@@H]1/C(=C\OC)C(=O)OC [HIRSUTINE],4.97,1.97,Not Active,,87.1,
COc1cc2c3cc1Oc1c(OC)c(OC)cc4c1[C@@H](Cc1ccc(OC(=O)c5ccc([N+](=O)[O-])cc5)c(c1)Oc1ccc(cc1)C[C@@H]3N(C)CC2)N(C)CC4 [E6 BERBAMINE],4.2,2.14,Not Active,,0.47,
C[C@@H]1OC(=O)[C@H]2C[C@H]3CCCC[C@@H]3[C@@H](/C=C/[C@H]3CCC[C@H](C)N3C)[C@@H]12 [HIMBACINE],,,,57,,IC50 (Cholinesterase [2]): Not Active; IC50 (Cholinesterase [3]): Not Active; IC50 (Acetylcholinesterase [4]; read-out: IC50): 22.7 µM
Nc1ccc(O)cc1,,,,,,inhibition [7]: 64%
O[C@H]1CCN2Cc3ccccc3N=C12 [VASICINE],2.53,3.13,Not Active,,85.7,
COc1ccc2cc3[n+](cc2c1OC)CCc1cc2c(cc1-3)OCO2 [BERBERINE CHLORIDE],,,,79,,IC50 (Acetylcholinesterase [4]; read-out: IC50): 2.74 µM; IC50 [8]: 43.8 µM; inhibition [9]: 36%; IC50 [10]: 106 µM
COC(=O)[C@H]1[C@H]2C[C@H]3c4[nH]c5ccccc5c4CCN3C[C@H]2CC[C@@H]1O.Cl [RAUWOLSCINE HYDROCHLORIDE],8.38,13.7,Not Active,12.4,59.1,
Oc1ccc(/C=C/c2cc(O)cc(O)c2)cc1 [RESVERATROL],,,,15.1,36.8,IC50 [10]: 81.8 µM; inhibition [11]: 71%; inhibition [12]: 32%
COc1ccc2c(c[n+](C)c3c4cc5c(cc4ccc23)OCO5)c1OC [CHELERYTHRINE CHLORIDE],6.33,10.3,,75.9,83.5,IC50 (Acetylcholinesterase [4]; read-out: IC50): 3.78 µM; Ki (Acetylcholinesterase [13]): 0.48 µM; Ki (Acetylcholinesterase [14]): 0.92 µM; Ki (Acetylcholinesterase [15]): 0.32 µM; Ki (Acetylcholinesterase [16]): 1.12 µM; IC50 [8]: 4.2 µM; inhibition [17]: 67%; IC50 [10]: 13 µM; IC50 (Acetylcholinesterase [18]): 1.54 µM
COc1cc2c(cc1OC)-c1cc3ccc(OC)c(OC)c3c[n+]1CC2.O.[Cl-] [PALMATINE CHLORIDE HYDRATE],,,,72.6,7.47,IC50 (Cholinesterase [2]): Not Active; IC50 [8]: 92.2 µM; IC50 [10]: 174 µM; IC50 (Acetylcholinesterase [18]): 1.69 µM
Cl.Cl.c1ccc2c3c([nH]c2c1)[C@H]1[C@H]2CC[C@H]([C@@H]4CCCN[C@@H]42)N1CC3,10.6,9.01,Not Active,20.5,48.7,
C[C@@H]1CC[C@H]2[C@H](C)[C@H]3CC[C@@]4(O)[C@@H]5CC(=O)[C@H]6CC(=O)CC[C@]6(C)[C@H]5C[C@H]4[C@@H]3CN2C1 [SEVEDINDIONE],3.68,0.27,Not Active,,17,
Oc1cccc2[nH]ccc12,,,,,,IC50 [19]: 85 µM
COc1cc2c3cc1Oc1c(OO)c(OC)cc4c1[C@H](Cc1ccc(cc1)Oc1cc(ccc1O)C[C@H]3N(C)CC2)N(C)CC4.O=S(=O)(O)O [OXYACANTHINE SULFATE],4.1,1.89,Not Active,0.62,66.3,
